A short description of data set [1]: Interfacial tension between aqueous solutions and perfluorodecalin. The data set is classed as physicochemical. The following applies: solution in water vs perfluorodécaline, 20°C. As to the method:
(§1) Pour illustrer le caractère fortement tensioactif des dérivés fluorés de l'invention, on a effectué des mesures à 20°C de la tension superficielle de solutions dans l'eau de ces dérivés, ainsi que de la tension interfaciale entre ces solutions et un composé perfluoré constitué par la perfluorodécaline.
(§2) On précise que dans les conditions de ces mesures: • - la tension superficielle de l'eau à 20°C est de 73,0± 0,2mN.m-^1, et • - la tension interfaciale entre l'eau et la perfluorodécaline à 20°C est de 56,0 ± 0,2 mN.m-^1.

A short description of data set [2]: Surface tension of aqueous solutions of the fluorinated derivatives. Type of data set: physicochemical. The following applies: solution in water, 20°C. As for the experimental part: as §1, §2
The subject of data set [3] is souris. Nature of the data set: Acute toxicity after intravenous administration to mice. Type of data set: in vivo. As for the experimental part:
Enfin, on a vérifié que les dérivés de l'invention ne présentaient pas de toxicité aigüe. Ainsi, l'administration intraveineuse à des souris, de 20 ml/kg des solutions à : • - 100 mg/I de (F-butyl-2')éthylbétaïne (ex. 4), • - 100 mg/l de (F-hexyl-2')éthylbétaïne (ex. 5), • - 100 mg/I de (F-octyl-2')éthylbétaïne (ex. 6), et • - 500 mg/I de (F-octyl-3"propylcarbamoyl)-4'butylbétaïne (ex. 14), dans de l'eau à 9 pour mille de NaCl, a été bien tolérée.

The subject of data set [4] is globules rouges humains. Put plainly: Haemolysis test on human red blood cells. The data set is classed as cell-based.
The subject of data set [5] is cultures cellulaires lymphoblastoïdes de la souche Namalva. Nature of the data set: Biocompatibility on lymphoblastoid cell cultures (growth, multiplication, subculturing). The data set is classed as cell-based. From the text: Pour tester la biocompatibilité des dérivés de l'invention, on a vérifié que ces dérivés n'avaient pas d'effet sur la croissance, la multiplication et le repiquage de cultures cellulaires lymphoblastoïdes de la souche Namalva.

Setting [6] is: 20 ml/kg of a 100 mg/l solution in water with 9 per mille NaCl.
The mark [7] stands for this setting: solution 5 g/l in water with 9 per mille NaCl.
Setting [8] is: solution 1 g/l in water with 9 per mille NaCl.
[9] abbreviates: solution 500 mg/l in water with 9 per mille NaCl.

On to `O=C(O)CNC(=O)CCC(F)(F)C(F)(F)C(F)(F)C(F)(F)C(F)(F)C(F)(F)C(F)(F)C(F)(F)F` [(F-octyl-3' propylcarbamoyl) éthanoate de sodium], for which the “Tension interfaciale/ F-décaline” value in data set [1] (concentration 0,01 g/l) is 41,3 mN.m^-1; in data set [1] (concentration 0,1 g/l) it was 25,2 mN.m^-1; in data set [1] (concentration 1 g/l), 7,1 mN.m^-1. The values for the Tension superficielle in data set [2] (concentration 0,01 g/l), in data set [2] (concentration 0,1 g/l) and in data set [2] (concentration 1 g/l) were 43,2 mN.m^-1, 38,8 mN.m^-1 and 21,6 mN.m^-1, respectively.

For `C[N+](C)(C)C(CCC(F)(F)C(F)(F)C(F)(F)C(F)(F)C(F)(F)C(F)(F)F)C(=O)[O-]` (centres unmarked) [(F-hexyl-2')éthyl bétaïne de l'Ex. 5, (F-hexyl-2')éthyl bétaïne], the results for the “Tension interfaciale/ F-décaline” value in data set [1] (concentration 0,1 g/l) and in data set [1] (concentration 1 g/l) were 22,4 mN.m^-1 and 3,1 mN.m^-1, respectively. For the same molecule, the “toxicité aigüe (tolérance)” value in data set [3] (setting [6]) is recorded as “bien tolérée”. The “hémolyse des globules rouges humains” value in data set [4] (setting [7]) is “ne provoquent pas l'hémolyse”. Further, the Tension superficielle is 39,3 mN.m^-1 in data set [2] (concentration 0,1 g/l) and 20,0 mN.m^-1 in data set [2] (concentration 1 g/l). Besides, the “croissance, multiplication et repiquage des cultures” value in data set [5] (setting [8]) is “ne perturbent pas la croissance, la multiplication et le repiquage de ces cultures”.

As to `C[N+](C)(C)C(CCCCNC(=O)CCC(F)(F)C(F)(F)C(F)(F)C(F)(F)C(F)(F)C(F)(F)C(F)(F)C(F)(F)F)C(=O)[O-]` (centres unmarked) [(triméthylammonio)-2 [(F-octyl)-3' propanoylamino] -6 hexanoate], the “Tension interfaciale/ F-décaline” value in data set [1] (concentration 0,01 g/l) was 5,2 mN.m^-1; in data set [1] (concentration 0,1 g/l), 3,6 mN.m^-1. For the same molecule, in data set [3] (20 ml/kg of a 500 mg/l solution in water with 9 per mille NaCl), the “toxicité aigüe (tolérance)” value was “bien tolérée”. Moreover, the “hémolyse des globules rouges humains” value in data set [4] (setting [9]) is on record as “ne provoquent pas l'hémolyse”. The figures for the Tension superficielle in data set [2] (concentration 0,01 g/l) and in data set [2] (concentration 0,1 g/l) were 22,8 mN.m^-1 and 19,7 mN.m^-1, respectively. In data set [5] (setting [9]), the “croissance, multiplication et repiquage des cultures” value is given as “ne perturbent pas la croissance, la multiplication et le repiquage de ces cultures”.

Take `C[C@H](CCC(=O)NC(CCC(F)(F)C(F)(F)C(F)(F)C(F)(F)C(F)(F)C(F)(F)F)C(=O)O)[C@H]1CC[C@H]2[C@@H]3[C@H](O)C[C@@H]4C[C@H](O)CC[C@]4(C)[C@H]3C[C@H](O)[C@]12C` (some centres unmarked): the “Tension interfaciale/ F-décaline” value in data set [1] (concentration 1 g/l) is 4,7 mN.m^-1. In addition, in data set [2] (concentration 1 g/l), the Tension superficielle is listed as 28,5 mN.m^-1.

Consider `C[N+](C)(C)C(CCC(F)(F)C(F)(F)C(F)(F)C(F)(F)F)C(=O)[O-]` (centres unmarked) [(F-butyl-2')éthyl bétaïne de l'Ex. 4, F-(butyl-2')éthyl bétaïne], for which the “Tension interfaciale/ F-décaline” value in data set [1] (concentration 0,1 g/l) was 48,0 mN.m^-1; in data set [1] (concentration 1 g/l) it was 34,5 mN.m^-1. Moreover, the “toxicité aigüe (tolérance)” value in data set [3] (setting [6]) was “bien tolérée”. Also, in data set [4] (setting [7]), the “hémolyse des globules rouges humains” value is “ne provoquent pas l'hémolyse”. Besides, the Tension superficielle in data set [2] (concentration 0,1 g/l) is 68,4 mN.m^-1; in data set [2] (concentration 1 g/l) it was 49,3 mN.m^-1. In data set [5] (setting [8]), the “croissance, multiplication et repiquage des cultures” value was “ne perturbent pas la croissance, la multiplication et le repiquage de ces cultures”.

Turning to `C[N+](C)(C)C(CCC(F)(F)C(F)(F)C(F)(F)C(F)(F)C(F)(F)C(F)(F)C(F)(F)C(F)(F)F)C(=O)[O-]` (centres unmarked) [(F-octyl-2')éthyl bétaïne de l'Ex. 6, (F-octyl-2')éthyl bétaïne], the “Tension interfaciale/ F-décaline” value in data set [1] (concentration 0,01 g/l) is recorded as 7,5 mN.m^-1; in data set [1] (concentration 0,1 g/l), 3,4 mN.m^-1; in data set [1] (concentration 1 g/l), 2,8 mN.m^-1. Further, in data set [3] (setting [6]), the “toxicité aigüe (tolérance)” value is listed as “bien tolérée”. Besides, in data set [4] (setting [8]), the “hémolyse des globules rouges humains” value is on record as “ne provoquent pas l'hémolyse”. Besides, the Tension superficielle in data set [2] (concentration 0,01 g/l) is 25,6 mN.m^-1; in data set [2] (concentration 0,1 g/l), 19,9 mN.m^-1; in data set [2] (concentration 1 g/l) it was 19,1 mN.m^-1. Besides, the “croissance, multiplication et repiquage des cultures” value in data set [5] (setting [8]) was “ne perturbent pas la croissance, la multiplication et le repiquage de ces cultures”.
